Experimental data from publication PMC8766756, “Insights on Cancer Cell Inhibition, Subcellular Activities, and Kinase Profile of Phenylacetamides Pending 1H-Imidazol-5-One Variants” (Frontiers in Pharmacology, 2022).
Read-outs that look alike come from different tables or passages of the source.

Experiments:
[1] = tested on: MCF7 breast cancer cell line; experiment: SRB cytotoxicity assay; type: cell-based, human; conditions: MCF7, SRB, 72 h, read-out: IC50 ± SEM MCF7
Method: (§1) The compounds were screened for their anticancer activities against a variety of cancer cell lines. The cytotoxic effect of the compounds was evaluated using the sulforhodamine B (SRB) cytotoxicity assay for breast cancer line (MCF7) and prostate cancer cell line (PC3) ([Vichai and Kirtikara, 2006]; [Rana et al., 2021]) and 3-(4,5-dimethylthiazol-2-yl)-2,5-diphenyl-2H-tetrazolium bromide (MTT) assay for the colon cancer (HCT116) cell lines ([El-Huneidi et al., 2020]). The CellTiter-Blue® cell viability assay was performed on the various leukemia cell lines, HL60, NB4, and KG1a cells ([Akter et al., 2019]). The IC50 values are illustrated in Table 1.
(§2) MCF7 (breast), PC3 (prostate), and HCT116 (colon) cancer cell lines were obtained from ATCC, Manassas, VA, USA. Cells were grown in Roswell Park Memorial Institute-1640 (RPMI-1640) medium (Thermo Fisher Scientific, Inc., Waltham, MA, USA), supplemented with 10% heat inactivated fetal bovine serum (FBS), 50 units/mL of penicillin, and […] of streptomycin and maintained at 37°C in a humidified atmosphere containing 5% CO2. The cells were maintained as “monolayer culture” by serial subculturing.
(§3) Exponentially growing MCF7 and PC3 cells were collected using 0.25% Trypsin-EDTA and were then seeded in 96-well plates at a density of 1,000–2,000 cells/well in 10% FBS and penicillin/streptomycin supplemented RPMI-1640 medium. After 24 h, the cells were treated with different concentrations of the test compounds and incubated for 72 h at 37°C in a humidified atmosphere containing 5% CO2. Next, the cells were fixed by trichloroacetic acid (TCA) (10% final concentration in wells) directly to the wells and incubated for 1 h at 4°C, then the cells were washed with distilled water five times to remove excess TCA, media, serum proteins, and metabolites, followed by air drying. After that, the fixed cells were stained with 0.4% SRB dissolved in 1% acetic acid for 10 min at room temperature, and excess stain was removed by quickly rinsing with 1% acetic acid. The residual acetic acid was removed completely by air drying the plates for 24 h, and the dye was solubilized with Tris buffer (pH = 7.4, 10 mM) for 5 min on a shaker at 1,600 rpm. The optical density of each well was measured spectrophotometrically at 564 nm with an ELISA microplate reader (ChroMate-4300, FL, USA). The IC50 values were calculated according to the equation for Boltzman sigmoidal concentration–response curve using the nonlinear regression fitting models (GraphPad®, Prism Version 5).

[2] = tested on: PC3 prostate cancer cell line; experiment: SRB cytotoxicity assay; type: cell-based, human; conditions: 72 h, read-out: IC50 ± SEM PC3
Method: as §1, §2, §3

HCT116 cells = experiment: Cytotoxic assay in presence of antioxidant N-acetylcysteine; type: cell-based; conditions: 48 h, MTT
From the text: Oxidative stress expressed as the reactive oxygen species (ROS) level is an important marker in cell death under the effect of certain cytotoxic drugs. Elevation of ROS may occur as a direct mechanism of some drugs such as Adriamycin ([Kim et al., 2019]) and trans-cinnamaldehyde ([Afanas’ev, 2011]; [Ka et al., 2003]) (safe covalent natural compound) or indirectly by the modulation of certain cellular contents ([Teppo et al., 2017]; [Perillo et al., 2020]). The involvement of ROS elevation and oxidative stress in the cytotoxic activities of KIM-161 on HCT116 was assessed. In this assay, the antioxidant N-acetylcysteine (NAC) was added at a very high concentration (5 mM) to check if it reverses the cytotoxic activities of KIM-161 on HCT116.
FIGURE 10 Effect of antioxidant pretreatment on viability of HCT116 treated with KIM-161. […] Cell viability was expressed as a percentage of vehicle control and was measured by the MTT assay (average of two independent experiments). Statistical significance was determined by two-way ANOVA using Šídák’s multiple comparisons test. * = p < 0.05; *** = p ≤ 0.001; **** = p < 0.0001.
HCT116 cells were seeded at a density of 5 × 10^4 cells/well in 96-well plates and left overnight to adhere. […] Cell viability was expressed as a percentage of the vehicle control (1% v/v ethanol) and was assessed using the MTT assay (data are expressed as mean ± SEM). […]

HL60 leukemia cell line = experiment: CellTiter-Blue cell viability assay; type: cell-based; conditions: Homo sapiens, HL-60, 48 h, read-out: IC50 ± SEM HL60
Method: as §1
(§4) HL60, NB4, and KG1a were purchased from CLS Cell Line Service GmbH (Eppelheim, Germany). All cell lines were cultured in RPMI-1640 medium supplemented with 10% FBS (Thermo Fisher Scientific) and ciprofloxacin (10 μg/ml; Cipla Limited; Mumbai, India), at 37°C with 5% CO2 in a humidified incubator.
(§5) The CellTiter-Blue® Cell Viability assay was acquired from Promega Corporation (Madison, WI, USA). The cell viability assay was performed as follows: the cells (10^4/well) were incubated with a concentration gradient of the test compounds ranging from 0.01 to 100 μM, in 96-well plates for 48 h at 37°C. Subsequently, 20 µL of the CellTiter-Blue® Cell Viability reagent was added to each well and incubated for an additional 2 h for the development of fluorescence. The fluorescence emission was measured at 590 nm using the SpectraMax® i3x Multi-Mode Microplate Reader (Molecular Devices, LLC; San Jose, CA, USA.) and plotted against the drug concentrations to determine the IC50 of the test compounds.

KG1a leukemia cell line = experiment: CellTiter-Blue cell viability assay; type: cell-based; conditions: Homo sapiens, KG-1a, 48 h
Method: as §1, §4, §5

NB4 leukemia cell line = experiment: CellTiter-Blue cell viability assay; type: cell-based; conditions: Homo sapiens, NB-4, 48 h
Method: as §1, §4, §5

SMILES: COc1ccc(/C=C2\N=C(C)N(c3ccc(CC(=O)NCc4ccccc4)cc3)C2=O)cc1 [Compound 4c, (Z)-N-Benzyl-2-(4-(4-(4-methoxybenzylidene)-2-methyl-5-oxo-4,5-dihydro-1H-imidazol-1-yl)phenyl)acetamide]
- IC50 ([1]; Homo sapiens, MCF7, 72 h): 1140 nM
- IC50 [1]: 1140 ± 190 nM
- IC50 [2]: 2140 ± 340 nM
- IC50 ([2]; Homo sapiens): 2130 nM
- change of cytotoxic effect by NAC addition (HCT116 cells; HCT116, KIM-161 0.5 µM, NAC 5 mM pretreatment 1 h): slightly altered
- change of cytotoxic effect by NAC addition (HCT116 cells; HCT116, increasing KIM-161 concentration (1.0, 5.0 µM), NAC 5 mM): higher involvement of this factor in the anticancer effect
- IC50 (HL60 leukemia cell line): 362 ± 20 nM
- IC50 (KG1a leukemia cell line): 893 nM
- IC50 (NB4 leukemia cell line): 275 nM
